In the NIST ThermoML archive (doi:10.1016/j.jct.2007.01.009):

Experiment: xn = mol fraction of the nth substance listed
Settings: 101 kPa, Liquid, Pycnometric method

CC(O)CCCCO (stereo not drawn) [1,5-hexanediol] + O
mass density [kg/m3]
Settings	283.15 K	288.15 K	293.15 K	298.15 K	303.15 K	308.15 K
x1 = 0.001	999.62	999.01	998.08	996.9	995.49	993.87
x1 = 0.0021	999.54	998.92	997.97	996.78	995.34	993.69
x1 = 0.0037	999.45	998.83	997.87	996.64	995.17	993.47
x1 = 0.0053	999.39	998.77	997.8	996.54	995.05	993.32
x1 = 0.0071	999.38	998.74	997.74	996.46	994.97	993.19
x1 = 0.0089	999.41	998.73	997.7	996.4	994.91	993.09
x1 = 0.0111	999.49	998.75	997.68	996.36	994.86	992.99
x1 = 0.0145	999.68	998.84	997.7	996.34	994.79	992.85
x1 = 0.0194	1000.04	999.07	997.8	996.37	994.7	992.68
x1 = 0.0324	1001.21	999.91	998.22	996.47	994.45	992.23
x1 = 0.0507	1002.48	1000.63	998.55	996.31	994.04	991.47
x1 = 0.0738	1002.95	1000.72	998.24	995.66	993.05	990.3

OCCCCCCO [1,6-hexanediol] + O
mass density [kg/m3]
Settings	283.15 K	288.15 K	293.15 K	298.15 K	303.15 K	308.15 K
x1 = 0.0009	999.67	999.02	998.12	996.93	995.54	993.92
x1 = 0.0019	999.65	998.96	998.04	996.83	995.42	993.78
x1 = 0.0037	999.63	998.86	997.92	996.68	995.24	993.57
x1 = 0.0054	999.64	998.8	997.84	996.58	995.11	993.41
x1 = 0.0074	999.66	998.78	997.78	996.49	994.99	993.24
x1 = 0.009	999.68	998.78	997.76	996.43	994.89	993.11
x1 = 0.0107	999.71	998.8	997.72	996.38	994.79	992.99
x1 = 0.0125	999.76	998.83	997.7	996.32	994.69	992.87
x1 = 0.0145	999.83	998.88	997.68	996.26	994.59	992.74
x1 = 0.0159	999.88	998.92	997.67	996.23	994.52	992.65
x1 = 0.0177	999.96	998.98	997.66	996.18	994.43	992.54
x1 = 0.0349	1000.78	999.42	997.56	995.67	993.61	991.57
x1 = 0.0514	1001.11	999.3	997.34	995.07	992.8	990.58
x1 = 0.0694	1001.08	998.88	996.87	994.3	991.84	989.39
x1 = 0.0983	1000.63	997.95	995.62	992.81	990.14	987.3
x1 = 0.112	1000.09	997.54	994.84	992.04	989.26	986.33
